Source: patent publication US9550792B2, “Polycyclic substituted pyrazole kinase activity inhibitors and use thereof” (priority 2013, dated 2017)
≈ marks a conversion by molar mass, not a printed value. Read-outs that look alike come from different tables or passages of the source.

Tests used:
[1] = test system: liver cancer cell line 7721; assay: Anti-tumor activity in vitro, MTT method; format: cell-based; conditions: 48 h, read-out: 7721 (IC50/μM)
lung cancer cell H1299 = assay: Anti-tumor activity in vitro, MTT method; format: cell-based; conditions: read-out: H1299 (IC50/μM)
Aurora A = target: T1, Aurora A (Homo sapiens, UniProt O14965); assay: Inhibitory activity to Aurora A (FRET); format: biochemical; conditions: for inhibition at 1 µM: read-out: Aurora A inhibition % (1 × 10^−6 mol/L)
T1 construct: purchased
T1 sequence (O14965 1-403): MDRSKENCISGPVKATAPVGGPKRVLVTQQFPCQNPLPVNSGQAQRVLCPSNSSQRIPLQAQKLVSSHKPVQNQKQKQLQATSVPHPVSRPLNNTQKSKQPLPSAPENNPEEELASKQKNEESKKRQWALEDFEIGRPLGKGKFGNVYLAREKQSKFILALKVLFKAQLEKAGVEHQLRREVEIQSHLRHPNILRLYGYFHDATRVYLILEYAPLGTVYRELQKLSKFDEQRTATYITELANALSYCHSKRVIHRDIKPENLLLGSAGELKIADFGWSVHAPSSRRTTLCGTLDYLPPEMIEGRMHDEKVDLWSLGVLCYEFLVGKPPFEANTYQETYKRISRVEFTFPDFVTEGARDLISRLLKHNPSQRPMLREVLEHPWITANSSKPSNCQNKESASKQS
Procedure: The inhibitory activities of the synthesized compounds for Aurora A is determined by fluorescence resonance energy transfer (FRET) and were compared with the positive control drug so as to screen the compounds with better activities. Aurora A was purchased in the form of a kit or obtained through purification. Procedures: Aurora A is diluted to a suitable concentration with kinase diluent. The kinase reaction mixture contains Aurora A, peptide substrate, HEPES (pH7.5), BRIJ-35, MgCl2 and EDTA. Aurora A phospho-peptide substrate is used as the control of 100% phosphorylation and ATP-free as the control of 0% phosphorylation. After 1 h, the diluted Development Reagent A is added into the reaction system. Then the reaction is allowed to proceed for 1 h and then quenched with Stop Reagent. The excitation wavelength is 400 nm and the fluorescence intensity is detected at 445 nm (coumarin) and 520 nm (fluorescein). The inhibitions of the tested compounds are calculated according to the formula.

[2] = test system: colon cancer cell line HCT116; assay: Anti-tumor activity in vitro, MTT method; format: cell-based
CDK2/A = target: T2, CDK2/A (Homo sapiens, UniProt P24941); assay: Inhibitory activity to CDK2 (FRET); format: biochemical; conditions: for inhibition at 1 µM: read-out: CDK2 inhibition % (1 × 10^−6 mol/L)
T2 construct: purchased
Procedure: CDK2/A was purchased in the form of a kit or obtained through purification.
Procedures: CDK2/A is diluted to a suitable concentration with kinase diluent. The kinase reaction mixture contains CDK2/A, peptide substrate, HEPES (pH7.5), BRIJ-35, MgCl2 and EDTA. CDK2 phospho-peptide substrate is used as the control of 100% phosphorylation and ATP-free as the control of 0% phosphorylation. After 1 h, the diluted Development Reagent A is added into the reaction system. Then the reaction is allowed to proceed for 1 h and then quenched with Stop Reagent. […] The inhibitions of the tested compounds are calculated according to the formula.

[3] = test system: resistant breast cancer cell line MCF-7; assay: Anti-tumor activity in vitro, MTT method; conditions: Homo sapiens, MCF7, 48 h, read-out: Resistant MCF7 (IC50/μM)
Procedure: (§2) MTT method: the dehydrogenase associated with NADP in the mitochondria of living cell is capable of reducing exogenous MTT into insoluble bluish violet crystal (Formazan), which is precipitated in the cell. […] DMSO or Triple liquid (10% SDS-5% isobutanol-0.01 mol/L HCl) is used to dissolve the crystal in the cell. The OD determined at 570 nm by a microplate reader can reflect the amount of the living cell indirectly.
(§3) The crystal is dissolved with DMSO and the detection is performed on a microplate reader.

[4] = test system: breast cancer cell line MDA231; assay: Anti-tumor activity in vitro, MTT method; conditions: Homo sapiens, MDA-MB-231, 48 h, read-out: MDA231 (IC50/μM)
Procedure: as §2, §3

S180 grafting tumor = assay: Inhibition to S180 grafting tumor in animal; format: in vivo, ICR mouse; conditions: 15 mg/kg intravenously once a day, 7 administrations
Procedure: ICR mouse was inoculated with solid tumor according to tumor grafting process (tumor piece was weighed under sterile condition, homogenized with glass tissue homogenizer, placed within a sterile container, to which was added physiological saline to prepare 1:3 cell suspension. The container was placed on ice and aspirated and the cells were mixed homogeneously before each aspiration. Each mouse was inoculated subcutaneously 0.2 mL at right fore axilla). […] The mice were administered intravenously, once a day and 7 administrations in total. The administration volume was 0.4 ml/20 g. The mice bearing tumor were sacrificed 8 days after inoculation (d8). The tumor tissue was separated and weighed. The data was analyzed with statistics method (t-test).
Dose setting: 5 groups in total.

[5] = test system: stomach cancer cell line MGC803; assay: Anti-tumor activity in vitro, MTT method; conditions: Homo sapiens, MGC-803, 48 h, read-out: MGC803 (IC50/μM)
Procedure: as §2, §3

[6] = test system: liver cancer cell line HEPG2; assay: Anti-tumor activity in vitro, MTT method; conditions: Homo sapiens, HepG2, 48 h, read-out: HEPG2 (IC50/μM)
Procedure: as §2, §3

[7] = test system: umbilical cord vein endothelium cell line HUVEC; assay: Anti-tumor activity in vitro, MTT method; conditions: Homo sapiens, 48 h, read-out: HUVEC (IC50/μM)
Procedure: as §2, §3

leukemia cell line NB4 = assay: Anti-tumor activity in vitro, MTT method; conditions: 48 h, read-out: NB4 (IC50/μM)
Procedure: as §2, §3

[8] = test system: stomach cancer cell line BSG823; assay: Anti-tumor activity in vitro, MTT method; conditions: 48 h, read-out: BSG823 (IC50/μM)
Procedure: as §2, §3

[9] = test system: lung cancer cell line A549; assay: Anti-tumor activity in vitro, MTT method; conditions: Homo sapiens, A549, 48 h, read-out: A549 (IC50/μM)
Procedure: as §2, §3

leukemia cell line K562 = assay: Anti-tumor activity in vitro, MTT method; conditions: Homo sapiens, K562, 48 h, read-out: K562 (IC50/μM)
Procedure: as §2, §3

[10] = test system: breast cancer cell line MCF-7; assay: Anti-tumor activity in vitro, MTT method; conditions: Homo sapiens, MCF7, 48 h, read-out: MCF7 (IC50/μM)
Procedure: as §2, §3

Phytophthora infestans = format: in vivo
Cryptococcus neoformans = assay: Antifungal activity, modified broth microdilution; format: cell-based; conditions: Cryptococcus neoformans; 48 hours at 35, approximately 50% reduction of growth
Procedure: (§1) The test microorganisms are maintained on Sabourahd Dextrose Agar slant at 4[…]. Singlet suspension of each microorganism is prepared by growing the yeast overnight at 27[…] on a rotating drum in yeast-nitrogen base broth (YNB) with amino acids (Difco, Detroit, Mich.), (pH 7.0) and 0.05 morpholine propanesulphonic acid (MOPS). […] The activity of the test compound is determined using a modified broth microdilution technique. […] Well 12 serves as a growth control. […] Inoculated plate is incubated for 48 hours at 35 °C. […] Minimal Cytolytic Concentration (MCC) is determined by subculturing all wells from the 96-well plate onto a Sabourahd Dextrose Agar (SDA) plate, incubating for 1-2 days at 35 °C, and then checking viability.

[11] = test system: Candida albicans - ATCC 36082; assay: Antifungal activity, modified broth microdilution; format: cell-based; conditions: Candida albicans, ATCC36082; 48 hours at 35, approximately 50% reduction of growth
Procedure: as §1

Candida parapsilosis = assay: Antifungal activity, modified broth microdilution; format: cell-based; conditions: Lodderomyces parapsilosis; 48 hours at 35, approximately 50% reduction of growth
Procedure: as §1

Candida tropicalis = assay: Antifungal activity, modified broth microdilution; format: cell-based; conditions: Candida tropicalis; 48 hours at 35, approximately 50% reduction of growth
Procedure: as §1

[12] = Homo sapiens, HCT-116, 48 h, read-out: HCT-116 (IC50/μM)
[13] = Homo sapiens, NCI-H1299, MTT, 48 h
[14] = Homo sapiens, HCT-116, MTT, 48 h, first cell table, read-out: HCT-116 (IC50/μM)

Cc1c[nH]c2ncnc(Nc3c[nH]nc3C(=O)Nc3ccc(CN4CCOCC4)cc3)c12 [Compound I-16, 4-(4-(5-methyl-7H-pyrrolo[2,3-d]pyrimidinyl)amino)-N-(4-((4-morpholinyl)methyl)phenyl)-1H-3-pyrazolecarboxamide]
IC50 ([1]; MTT): 54.2 µM | IC50 (lung cancer cell H1299; MTT, 48 h): 89 µM | Aurora A inhibition % (1 × 10^−6 mol/L) (Aurora A; 1 × 10^−6 mol/L): 56.18% | IC50 ([2]; MTT, 48 h, first cell table, read-out: HCT-116 (IC50/μM)): 32.3 µM | CDK2 inhibition % (1 × 10^−6 mol/L) (CDK2/A; 1 × 10^−6 mol/L): 50.49%

O=C(NC1CCNCC1)c1n[nH]cc1NC(=O)c1c(Cl)cccc1Cl [AT-7519, reference compound]
IC50 [3]: 22.1 µM | IC50 [4]: 2.58 µM | Body weight After administration (S180 grafting tumor): 23.83 ± 3.39 g | Tumor inhibition (S180 grafting tumor; d8): 32.45% | Tumor weight (S180 grafting tumor; d8): 0.80 ± 0.27 g | IC50 [5]: 1.93 µM | IC50 [1]: > 200 µM | IC50 (lung cancer cell H1299; Homo sapiens, NCI-H1299, 48 h): 9.32 µM | IC50 [6]: 53.6 µM | IC50 [7]: 5.67 µM | inhibition at 1 µM (Aurora A): 38% | IC50 (leukemia cell line NB4): 0.62 µM | IC50 [8]: 16.7 µM | IC50 ([2]; Homo sapiens, HCT-116, 48 h, read-out: HCT116 (IC50/μM)): 2.63 µM | IC50 [2, 12]: 21.2 µM | IC50 [9]: 53.5 µM | IC50 (leukemia cell line K562): 3.24 µM | IC50 [10]: 2.04 µM

O=C(Nc1ccc(CN2CCOCC2)cc1)c1n[nH]cc1Nc1ncnc2occc12 [Compound I-22, 4-(4-furo[2,3-d]pyrimidinylamino)-N-(4-((4-morpholinyl)methyl)phenyl)-1H-3-pyrazolecarboxamide]
melting point: > 280 °C | IC50 ([1]; MTT): 18.1 µM | IC50 (lung cancer cell H1299; [13]): 10.3 µM | inhibition at 1 µM (Aurora A): 48.5% | IC50 [2, 14]: 8.63 µM | inhibition at 1 µM (CDK2/A): 66.3%

O=C(Nc1c[nH]nc1-c1nc2ccc(CN3CCOCC3)cc2[nH]1)NC1CC1 [AT-9283, reference compound]
IC50 ([1]; MTT): 61.2 µM | IC50 (lung cancer cell H1299; [13]): 10.8 µM | inhibition at 1 µM (Aurora A): 77.4% | IC50 [2, 14]: 21.2 µM | inhibition at 1 µM (CDK2/A): 39.7%

CN1CCN(Cc2ccc(NC(=O)c3n[nH]cc3Nc3ccnc4ccoc34)cc2)CC1 [Compound I-39, 4-(7-furo[3,2-b]pyridylamino)-N-(4-((4-methyl-1-piperazinyl)methyl)phenyl)-1H-3-pyrazolecarboxamide]
melting point: 268 to 270 °C | IC50 ([1]; MTT): > 200 µM | IC50 (lung cancer cell H1299; [13]): > 200 µM | inhibition at 1 µM (Aurora A): 42.1% | IC50 [2, 14]: > 200 µM | inhibition at 1 µM (CDK2/A): 37.6%

CN1CCN(Cc2ccc(NC(=O)c3n[nH]cc3Nc3nccc4ccsc34)cc2)CC1 [Compound I-29, 4-(7-thieno[2,3-c]pyridylamino)-N-(4-((4-methyl-1-piperazinyl)methyl)phenyl)-1H-3-pyrazolecarboxamide]
Severity of tomato leaf blight (Phytophthora infestans; 0.0001 (unit not given)): +++ (40-60% blight) | Severity of tomato leaf blight (Phytophthora infestans; 0.001 (unit not given)): ++ (15-40% blight) | Severity of tomato leaf blight (Phytophthora infestans; 0.01 (unit not given)): + (0-15% blight) | Severity of tomato leaf blight (Phytophthora infestans; 0.1 (unit not given)): − | melting point: 274 to 276 °C | MIC (Cryptococcus neoformans): 7.81 µg/mL (≈ 17.4 µM) | MIC [11]: 2.73 µg/mL (≈ 6.1 µM) | MIC (Candida parapsilosis): 6.47 µg/mL (≈ 14.5 µM) | MIC (Candida tropicalis): 4.21 µg/mL (≈ 9.41 µM) | IC50 [1]: 4.95 µM | IC50 (lung cancer cell H1299; Homo sapiens, NCI-H1299, 48 h): 3.84 µM | inhibition at 1 µM (Aurora A): 64.4% | IC50 [2, 12]: 0.26 µM | inhibition at 1 µM (CDK2/A): 76.2%
